According to patent publication US11739098B2 (BRISTOL-MYERS SQUIBB COMPANY, priority 2017, dated 2023):

How the values were obtained:
Type in all cases: cell-based
human TLR7 = biological target: T1, human TLR7 (Homo sapiens, UniProt Q9NYK1); assay: TLR7 inhibition reporter assay (HEK-Blue cells, SEAP reporter, gardiquimod stimulation); settings: HEK-Blue cells overexpressing human TLR7, SEAP reporter, gardiquimod 7.5 μM
T1 construct: host or cells: HEK-Blue cells (HEK293-derived reporter line)
T1 sequence (Q9NYK1 27-1049): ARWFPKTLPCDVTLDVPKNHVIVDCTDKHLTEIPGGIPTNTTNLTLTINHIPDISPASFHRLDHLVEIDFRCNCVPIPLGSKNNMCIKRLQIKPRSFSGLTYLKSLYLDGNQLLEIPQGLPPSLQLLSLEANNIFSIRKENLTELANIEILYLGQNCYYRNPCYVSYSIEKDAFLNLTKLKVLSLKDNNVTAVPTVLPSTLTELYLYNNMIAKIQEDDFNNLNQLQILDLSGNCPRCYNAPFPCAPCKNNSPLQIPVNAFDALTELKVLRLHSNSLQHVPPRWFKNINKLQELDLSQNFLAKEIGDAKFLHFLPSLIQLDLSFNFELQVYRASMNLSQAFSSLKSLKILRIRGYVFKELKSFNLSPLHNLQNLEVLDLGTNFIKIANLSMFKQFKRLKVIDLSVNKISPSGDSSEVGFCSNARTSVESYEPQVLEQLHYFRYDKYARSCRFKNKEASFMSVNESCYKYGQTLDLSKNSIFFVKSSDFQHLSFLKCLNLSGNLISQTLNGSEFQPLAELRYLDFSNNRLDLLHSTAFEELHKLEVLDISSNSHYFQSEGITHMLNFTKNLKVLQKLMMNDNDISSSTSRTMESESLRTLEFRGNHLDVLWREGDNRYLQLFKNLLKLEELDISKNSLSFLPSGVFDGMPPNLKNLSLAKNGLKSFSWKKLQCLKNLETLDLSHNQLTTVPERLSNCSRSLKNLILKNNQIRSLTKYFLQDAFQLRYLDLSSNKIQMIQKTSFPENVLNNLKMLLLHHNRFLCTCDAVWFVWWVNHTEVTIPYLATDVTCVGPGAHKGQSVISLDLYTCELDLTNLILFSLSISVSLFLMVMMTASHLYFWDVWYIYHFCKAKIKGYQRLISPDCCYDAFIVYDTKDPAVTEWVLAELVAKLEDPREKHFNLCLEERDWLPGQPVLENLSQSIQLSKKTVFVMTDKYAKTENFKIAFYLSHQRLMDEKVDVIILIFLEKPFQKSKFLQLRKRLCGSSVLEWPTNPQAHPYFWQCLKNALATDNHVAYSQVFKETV
Procedure, shortened: (§1)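 HEK-Blue cells overexpressing human TLR7, TLR8 or TLR9 (NF-κB/AP-1-driven SEAP) pre-treated 30 min at room temperature with compound (0.05 nM–50 μM), then stimulated with gardiquimod 7.5 μM (TLR7), R848 15.9 μM (TLR8) or ODN2006 5 nM (TLR9). SEAP read colorimetrically after 22 h at 37 °C; % inhibition calculated.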

human TLR8 = biological target: T2, human TLR8 (Homo sapiens, UniProt Q9NR97); assay: TLR8 inhibition reporter assay (HEK-Blue cells, SEAP reporter, R848 stimulation); settings: HEK-Blue cells overexpressing human TLR8, SEAP reporter, R848 15.9 μM
T2 construct: host or cells: HEK-Blue cells (HEK293-derived reporter line)
T2 sequence (Q9NR97 27-1041): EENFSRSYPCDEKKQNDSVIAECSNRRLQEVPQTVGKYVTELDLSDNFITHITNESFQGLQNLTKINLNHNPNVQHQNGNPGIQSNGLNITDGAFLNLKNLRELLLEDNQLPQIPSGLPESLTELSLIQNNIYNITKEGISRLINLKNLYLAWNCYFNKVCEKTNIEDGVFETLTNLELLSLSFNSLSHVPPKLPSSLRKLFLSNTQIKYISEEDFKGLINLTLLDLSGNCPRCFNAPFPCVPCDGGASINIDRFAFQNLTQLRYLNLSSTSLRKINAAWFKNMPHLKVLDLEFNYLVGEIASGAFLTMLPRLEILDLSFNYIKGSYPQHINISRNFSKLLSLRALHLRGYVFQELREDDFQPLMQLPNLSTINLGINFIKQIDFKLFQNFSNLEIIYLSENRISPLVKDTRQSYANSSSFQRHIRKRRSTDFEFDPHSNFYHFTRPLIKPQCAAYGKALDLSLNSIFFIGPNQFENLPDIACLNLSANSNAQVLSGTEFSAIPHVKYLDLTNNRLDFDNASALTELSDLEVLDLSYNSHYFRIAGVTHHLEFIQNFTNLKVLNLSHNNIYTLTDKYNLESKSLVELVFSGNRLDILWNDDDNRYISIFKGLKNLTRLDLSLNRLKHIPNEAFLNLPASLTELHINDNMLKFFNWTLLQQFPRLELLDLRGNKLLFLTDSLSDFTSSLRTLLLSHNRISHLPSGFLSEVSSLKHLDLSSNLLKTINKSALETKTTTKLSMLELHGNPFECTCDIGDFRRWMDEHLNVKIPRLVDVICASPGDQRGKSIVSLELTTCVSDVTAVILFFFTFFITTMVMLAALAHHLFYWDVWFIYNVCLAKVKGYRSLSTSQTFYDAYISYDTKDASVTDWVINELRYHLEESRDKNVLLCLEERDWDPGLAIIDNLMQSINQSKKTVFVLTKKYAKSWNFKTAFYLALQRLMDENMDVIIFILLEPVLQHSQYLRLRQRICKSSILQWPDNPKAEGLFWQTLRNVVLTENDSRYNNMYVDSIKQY
Procedure, shortened: as §1

human TLR9 = biological target: T3, human TLR9 (Homo sapiens, UniProt Q9NR96); assay: TLR9 inhibition reporter assay (HEK-Blue cells, SEAP reporter, ODN2006 stimulation); settings: HEK-Blue cells overexpressing human TLR9, SEAP reporter, ODN2006 5 nM
T3 construct: host or cells: HEK-Blue cells (HEK293-derived reporter line)
T3 sequence (Q9NR96 26-1032): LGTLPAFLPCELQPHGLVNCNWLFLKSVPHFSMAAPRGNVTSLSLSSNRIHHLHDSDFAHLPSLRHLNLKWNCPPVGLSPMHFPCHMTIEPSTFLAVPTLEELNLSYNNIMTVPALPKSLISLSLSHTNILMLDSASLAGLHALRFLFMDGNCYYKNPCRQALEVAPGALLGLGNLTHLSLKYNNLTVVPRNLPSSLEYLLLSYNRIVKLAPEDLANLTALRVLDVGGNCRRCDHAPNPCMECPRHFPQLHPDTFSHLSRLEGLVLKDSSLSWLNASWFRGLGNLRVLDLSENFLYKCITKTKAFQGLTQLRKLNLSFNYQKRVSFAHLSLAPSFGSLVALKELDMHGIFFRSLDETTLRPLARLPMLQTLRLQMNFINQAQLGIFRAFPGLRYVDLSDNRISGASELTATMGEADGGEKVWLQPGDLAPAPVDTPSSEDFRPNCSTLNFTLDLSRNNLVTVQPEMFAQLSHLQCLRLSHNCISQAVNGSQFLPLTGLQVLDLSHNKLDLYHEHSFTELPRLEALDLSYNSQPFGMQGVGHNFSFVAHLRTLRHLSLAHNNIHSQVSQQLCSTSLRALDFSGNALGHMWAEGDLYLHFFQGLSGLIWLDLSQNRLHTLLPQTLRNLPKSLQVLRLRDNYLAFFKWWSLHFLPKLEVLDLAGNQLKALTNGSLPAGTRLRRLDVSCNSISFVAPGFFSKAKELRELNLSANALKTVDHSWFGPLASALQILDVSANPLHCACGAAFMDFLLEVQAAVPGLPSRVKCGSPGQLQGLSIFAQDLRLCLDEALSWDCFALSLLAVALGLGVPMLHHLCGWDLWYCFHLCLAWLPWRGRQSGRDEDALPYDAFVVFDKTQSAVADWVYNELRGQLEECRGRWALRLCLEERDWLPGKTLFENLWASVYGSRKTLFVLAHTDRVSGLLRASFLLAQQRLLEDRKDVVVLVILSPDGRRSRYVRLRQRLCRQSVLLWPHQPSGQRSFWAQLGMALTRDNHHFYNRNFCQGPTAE
Procedure, shortened: as §1

Structure (SMILES)	IC50 (human TLR7)	IC50 (human TLR8)	IC50 (human TLR9)
CCc1c(-c2ccc3[nH]c(=O)[nH]c3c2)[nH]c2ccc(C3CCNCC3)cc12 [Example 166, 5-(3-ethyl-5-(piperidin-4-yl)-1H-indol-2-yl)-1,3-dihydro-2H-benzo[d]imidazol-2-one]	1 to 50 µM	0.1 to 1 µM	1 to 50 µM
Cc1nn2ccc(-c3[nH]c4ccc(C5CCNCC5)cc4c3C(C)C)cc2c1F [Example 146, 3-fluoro-5-(3-isopropyl-5-(piperidin-4-yl)-1H-indol-2-yl)-2-methylpyrazolo[1,5-a]pyridine]	< 0.1 µM	0.1 to 1 µM	> 50 µM
CC(C)c1c(-c2ccnc3[nH]ncc23)[nH]c2ccc(C3CCNCC3)cc12 [Example 230, 4-(3-isopropyl-5-(piperidin-4-yl)-1H-indol-2-yl)-1H-pyrazolo[3,4-b]pyridine]	< 0.1 µM	< 0.1 µM	0.1 to 1 µM
Cc1c[nH]c2nccc(-c3[nH]c4ccc(C5CCNCC5)cc4c3C(C)C)c12 [Example 215, 4-(3-isopropyl-5-(piperidin-4-yl)-1H-indol-2-yl)-3-methyl-1H-pyrrolo[2,3-b]pyridine]	0.1 to 1 µM	0.1 to 1 µM	1 to 50 µM
CC(C)c1c(-c2ccc3[nH]nnc3c2)[nH]c2ccc(C3CCNCC3)cc12 [Example 51, 5-(3-isopropyl-5-(piperidin-4-yl)-1H-indol-2-yl)-1H-benzo[d][1,2,3]triazole]	< 0.1 µM	< 0.1 µM	0.1 to 1 µM
CC(C)c1c(-c2ccc3ncsc3c2)[nH]c2ccc(C3CCN(CC(=O)N(C)C)CC3)cc12 [Example 298, 2-(4-(2-(benzo[d]thiazol-6-yl)-3-isopropyl-1H-indol-5-yl)piperidin-1-yl)-N,N-dimethylacetamide]	< 0.1 µM	< 0.1 µM	1 to 50 µM

Further lines, results first:

IC50 (human TLR7)	IC50 (human TLR8)	IC50 (human TLR9)	Structure (SMILES)
< 0.1 µM	< 0.1 µM	0.1 to 1 µM	CCc1c(-c2ccnc3[nH]ccc23)[nH]c2ccc(C3CCN(C4CCN(CC)CC4)CC3)cc12 [Example 837, 4-(3-ethyl-5-(1′-ethyl-[1,4′-bipiperidin]-4-yl)-1H-indol-2-yl)-1H-pyrrolo[2,3-b]pyridine]
< 0.1 µM	< 0.1 µM	0.1 to 1 µM	Cc1cc(-c2[nH]c3ccc(C4CCN(CC(C)C)CC4)cc3c2C(C)C)cc2[nH]cnc12 [Example 955, 6-(5-(1-isobutylpiperidin-4-yl)-3-isopropyl-1H-indol-2-yl)-4-methyl-1H-benzo[d]imidazole]
< 0.1 µM	< 0.1 µM	< 0.1 µM	Cc1c(-c2ccnc3[nH]ccc23)[nH]c2ccc(C3CCN(C4CCN(CC(C)C)CC4)CC3)cc12 [Example 812, 4-(5-(1′-isobutyl-[1,4′-bipiperidin]-4-yl)-3-methyl-1H-indol-2-yl)-1H-pyrrolo[2,3-b]pyridine]
< 0.1 µM	< 0.1 µM	< 0.1 µM	CC(C)c1c(-c2ccnc3[nH]ncc23)[nH]c2cc(F)c(C3CCN(CC4CCNC4)CC3)cc12 (stereo not drawn) [Example 853, 4-(6-fluoro-3-isopropyl-5-(1-(pyrrolidin-3-ylmethyl)piperidin-4-yl)-1H-indol-2-yl)-1H-pyrazolo[3,4-b]pyridine]
< 0.1 µM	< 0.1 µM	1 to 50 µM	COc1cc(-c2[nH]c3ccc(C4CCN(CCNS(C)(=O)=O)CC4)cc3c2C(C)C)nn2ncnc12 [Example 652, N-(2-(4-(3-isopropyl-2-(8-methoxy-[1,2,4]triazolo[1,5-b]pyridazin-6-yl)-1H-indol-5-yl)piperidin-1-yl)ethyl)methanesulfonamide]
0.1 to 1 µM	< 0.1 µM	1 to 50 µM	CCc1c(-c2ccnc3[nH]ncc23)[nH]c2ccc(C3CCN(Cc4nc(C)oc4C)CC3)cc12 [Example 898, 4-((4-(3-ethyl-2-(1H-pyrazolo[3,4-b]pyridin-4-yl)-1H-indol-5-yl)piperidin-1-yl)methyl)-2,5-dimethyloxazole]
< 0.1 µM	< 0.1 µM	1 to 50 µM	Cc1cc(-c2[nH]c3ccc(C4CCN(C(=O)CCN5CCC6CC65)CC4)cc3c2C(C)C)cn2nnnc12 (stereo not drawn) [Example 632, 3-(2-azabicyclo[3.1.0]hexan-2-yl)-1-(4-(3-isopropyl-2-(8-methyltetrazolo[1,5-a]pyridin-6-yl)-1H-indol-5-yl)piperidin-1-yl)propan-1-one]
< 0.1 µM	< 0.1 µM	1 to 50 µM	Cc1cc(-c2[nH]c3ccc(C4CCN(C5CCOCC5)CC4)cc3c2C(C)C)cc2cccnc12 [Example 703, 6-(3-isopropyl-5-(1-(tetrahydro-2H-pyran-4-yl)piperidin-4-yl)-1H-indol-2-yl)-8-methylquinoline]
> 3.13 µM	1 to 50 µM	> 50 µM	Cc1nc2c(-c3[nH]c4ccc(C5CCN(C(=O)C[C@H](C)O)CC5)cc4c3C(C)C)ccc(C)n2n1 [Example 598, (S)-1-(4-(2-(2,5-dimethyl-[1,2,4]triazolo[1,5-a]pyridin-8-yl)-3-isopropyl-1H-indol-5-yl)piperidin-1-yl)-3-hydroxybutan-1-one]
